In general, IC50 refers to the concentration that gives 50% inhibition. What is called Ki is a dissociation constant, usually derived from enzyme kinetics or from competition with a known ligand.

Structures can show the parent of a compound that is named as a salt.

For 32 molecules, IC50 and Ki results are on record in patent publication US9079866B2, “Flap modulators” (JANSSEN PHARMACEUTICA NV, priority 2013, dated 2015).

The test system of test [1] is leukotriene pathway in human whole blood (LTB4 levels). As to the kind of experiment: Human whole blood assay (A23187-stimulated LTB4). The note with it: Homo sapiens, human whole blood diluted 1:1 in RPMI, A23187-stimulated LTB4; read-out: LTB4 IC50 1:1. Type of test: cell-based. The procedure, abridged:
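Heparinised human whole blood diluted 1:1 in RPMI, pre-incubated 15 min at 37° Celsius with compound, then stimulated with A23187 (7 μg/mL) for 30 min at 37° Celsius. Plasma LTB4 measured by immunoassay kit; IC50 from 4-parameter fit; single replicate per plate, at least one healthy donor.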

Another test addresses human FLAP (Homo sapiens (Human), UniProt P20292). Briefly: FLAP binding assay (HTRF format). The note with it: human FLAP wild type, HTRF format; average of two plates, duplicates. The procedure, abridged: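 Binding of compounds to FLAP read out as HTRF ratio. Values are the mean of two assay plates, each sample run in duplicate per plate.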
In general terms: TR-FRET usually uses a lanthanide donor and a delayed reading to cut background.

Sequence of human FLAP (P20292 whole entry): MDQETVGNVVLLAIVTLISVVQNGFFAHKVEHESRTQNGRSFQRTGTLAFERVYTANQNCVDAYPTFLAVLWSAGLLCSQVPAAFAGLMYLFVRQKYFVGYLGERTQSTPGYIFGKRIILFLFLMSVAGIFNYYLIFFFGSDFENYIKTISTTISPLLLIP

On to `Nc1cnc(-c2ccc(-c3ccccc3S(=O)(=O)N[C@H]3CCCC[C@@H]3O)cc2F)cn1` [Example 162, 4′-(5-Aminopyrazin-2-yl)-3′-fluoro-N-((1S,2S)-2-hydroxycyclohexyl)-[1,1′-biphenyl]-2-sulfonamide], for which the IC50 in test [1] came to 122 nM. The molecule further yielded an inhibition constant (Ki) on human FLAP of 5 nM.

Take `Nc1cnc(-c2ccc(-c3ccccc3S(=O)(=O)Nc3ccc(C(F)(F)F)nc3)cc2F)cn1` [Example 163, 4′-(5-Aminopyrazin-2-yl)-3′-fluoro-N-[6-(trifluoromethyl)pyridin-3-yl]biphenyl-2-sulfonamide]: in test [1], the IC50 amounted to 595 nM. This molecule also came in with a Ki on human FLAP of 1 nM.

On to `Nc1cnc(-c2ccc(-c3ccccc3S(=O)(=O)N3CCC(c4c[nH]cn4)CC3)cc2F)cn1` [Example 164, 5-(3-Fluoro-2′-{[4-(1H-imidazol-4-yl)piperidin-1-yl]sulfonyl}biphenyl-4-yl)pyrazin-2-amine], for which the IC50 in test [1] was determined as 333 nM. Also, the inhibition constant Ki at human FLAP was found to be 1 nM.

Consider `Cc1ncc(CNS(=O)(=O)c2ccccc2-c2ccc(-c3cnc(N)cn3)c(F)c2)c(N)n1` [Example 165, N-[(4-Amino-2-methylpyrimidin-5-yl)methyl]-4′-(5-aminopyrazin-2-yl)-3′-fluorobiphenyl-2-sulfonamide], for which, in test [1], the IC50 turned out to be 879 nM. This molecule also displayed an inhibition constant Ki on human FLAP of 18 nM.

With `COc1cc(NS(=O)(=O)c2ccccc2-c2ccc(-c3cnc(N)cn3)c(F)c2)nc(OC)n1` [Example 166, 4′-(5-Aminopyrazin-2-yl)-N-(2,6-dimethoxypyrimidin-4-yl)-3′-fluorobiphenyl-2-sulfonamide], in test [1], the half-inhibitory concentration (IC50) was found to be 4460 nM. Further, on human FLAP, the affinity corresponds to a Ki of 164 nM.

For the molecule `Cc1cnc(NS(=O)(=O)c2ccccc2-c2ccc(-c3cnc(N)cn3)c(F)c2)cn1` [Example 167, 4′-(5-Aminopyrazin-2-yl)-3′-fluoro-N-(5-methylpyrazin-2-yl)biphenyl-2-sulfonamide], in test [1], the IC50 was 442 nM. The inhibition constant (Ki) at human FLAP came to 47 nM.

Take `CC(C)C[C@H](NS(=O)(=O)c1ccccc1-c1ccc(-c2cnc(N)cn2)c(F)c1)C(N)=O` [Example 168, (S)-2-(4′-(5-Aminopyrazin-2-yl)-3′-fluoro-[1,1′-biphenyl]-2-ylsulfonamido)-4-methylpentanamide]: the half-maximal inhibitory concentration (IC50) in test [1] was 135 nM. Further, the affinity at human FLAP corresponds to a Ki of 14 nM.

As to `N#CCCN(C1CC1)S(=O)(=O)c1ccccc1-c1ccc(-c2cnc(N)cn2)c(F)c1` [Example 172, 4′-(5-Aminopyrazin-2-yl)-N-(2-cyanoethyl)-N-cyclopropyl-3′-fluorobiphenyl-2-sulfonamide], the IC50 in test [1] came out at 20 nM. The molecule also displayed a Ki at human FLAP of 4 nM.

As for `CC1(NS(=O)(=O)c2ccccc2-c2ccc(-c3cnc(N)cn3)c(F)c2)COC1` [Example 173, 4′-(5-Aminopyrazin-2-yl)-3′-fluoro-N-(3-methyloxetan-3-yl)biphenyl-2-sulfonamide], in test [1], the IC50 stood at 17 nM. Also, at human FLAP, the inhibition constant Ki came to 1 nM.

Regarding `N#CCCN1CCN(S(=O)(=O)c2ccccc2-c2ccc(-c3cnc(N)cn3)c(F)c2)CC1` [Example 174, 3-(4-{[4′-(5-Aminopyrazin-2-yl)-3′-fluorobiphenyl-2-yl]sulfonyl}piperazin-1-yl)propanenitrile], the IC50 in test [1] was found to be 23 nM. At human FLAP, this molecule came in with a Ki of 2 nM.

Turning to `COC[C@H](C)NS(=O)(=O)c1ccccc1-c1ccc(-c2cnc(N)cn2)c(F)c1` [Example 175, (S)-4′-(5-Aminopyrazin-2-yl)-3′-fluoro-N-(1-methoxypropan-2-yl)-[1,1′-biphenyl]-2-sulfonamide], the IC50 in test [1] was found to be 17 nM. On human FLAP, this molecule returned a Ki of 1 nM.

Regarding `CN(C)S(=O)(=O)Nc1ccccc1-c1ccc(-c2cnc(N)cn2)c(F)c1` [Example 182, N′-[4′-(5-Aminopyrazin-2-yl)-3′-fluorobiphenyl-2-yl]-N,N-dimethylsulfamide], the half-maximal inhibitory concentration (IC50) in test [1] came to 217 nM. This molecule yielded a Ki at human FLAP of 20 nM.

Consider `Nc1cnc(-c2ccc(-c3ccccc3NS(=O)(=O)N3CCOCC3)cc2F)cn1` [Example 183, N-[4′-(5-Aminopyrazin-2-yl)-3′-fluorobiphenyl-2-yl]morpholine-4-sulfonamide], for which the IC50 in test [1] came to 130 nM. Also, affinity on human FLAP was put at a Ki of 34 nM.

For the molecule `Nc1cnc(-c2ccc(-c3ccccc3S(=O)(=O)N3CC[C@@H](O)C3)cc2F)cn1` [Example 185, (3R)-1-{[4′-(5-Aminopyrazin-2-yl)-3′-fluorobiphenyl-2-yl]sulfonyl}pyrrolidin-3-ol trifluoroacetic acid salt], the half-maximal inhibitory concentration (IC50) in test [1] was found to be 51 nM. For the same molecule, the inhibition constant (Ki) on human FLAP turned out to be 10 nM.

Regarding `Nc1cnc(-c2ccc(-c3ccccc3SC(F)(F)F)cc2F)cn1` [Example 189, 5-{3-Fluoro-2′-[(trifluoromethyl)sulfanyl]biphenyl-4-yl}pyrazin-2-amine], the 50% inhibitory concentration (IC50) in test [1] worked out at 1650 nM. The molecule also yielded an inhibition constant (Ki) on human FLAP of 173 nM.

As for `CC(C)(C)Sc1ccccc1-c1ccc(-c2cnc(N)cn2)c(F)c1` [Example 190, 5-[2′-(tert-Butylsulfanyl)-3-fluorobiphenyl-4-yl]pyrazin-2-amine], in test [1], the IC50 was found to be 471 nM. Besides, the Ki on human FLAP worked out at 58 nM.

Turning to `CCCS(=O)(=O)c1ccccc1-c1ccc(-c2cnc(N)cn2)c(F)c1` [Example 192, 5-[3-Fluoro-2′-(propylsulfonyl)biphenyl-4-yl]pyrazin-2-amine], the IC50 in test [1] was found to be 171 nM. The affinity at human FLAP corresponds to a Ki of 58 nM.

Turning to `CC(C)CS(=O)(=O)c1ccccc1-c1ccc(-c2cnc(N)cn2)c(F)c1` [Example 193, 5-{3-Fluoro-2′-[(2-methylpropyl)sulfonyl]biphenyl-4-yl}pyrazin-2-amine], in test [1], the IC50 was 144 nM. This molecule also returned a Ki on human FLAP of 26 nM.

In the case of `Nc1cnc(-c2ccc(-c3ccccc3S(=O)(=O)C3CCCC3)cc2F)cn1` [Example 195, 5-[2′-(Cyclopentylsulfonyl)-3-fluorobiphenyl-4-yl]pyrazin-2-amine], the IC50 in test [1] was 93 nM. Further, the inhibitory constant (Ki) on human FLAP worked out at 3 nM.

Take `Nc1cnc(-c2ccc(-c3ccccc3S(=O)(=O)C3CCC3)cc2F)cn1` [Example 196, 5-[2′-(Cyclobutylsulfonyl)-3-fluorobiphenyl-4-yl]pyrazin-2-amine]: the half-maximal inhibitory concentration (IC50) in test [1] was 104 nM. This molecule also showed a Ki at human FLAP of 10 nM.

On to `Nc1cnc(-c2ccc(-c3ccccc3S(=O)(=O)C3CC3)cc2F)cn1` [Example 197, 5-[2′-(Cyclopropylsulfonyl)-3-fluorobiphenyl-4-yl]pyrazin-2-amine], for which the IC50 in test [1] worked out at 83 nM. This molecule came in with an inhibition constant (Ki) on human FLAP of 10 nM.

As to `CCCCCCS(=O)(=O)c1ccccc1-c1ccc(-c2cnc(N)cn2)c(F)c1` [Example 198, 5-[3-Fluoro-2′-(hexylsulfonyl)biphenyl-4-yl]pyrazin-2-amine], the half-inhibitory concentration (IC50) in test [1] amounted to 375 nM. For the same molecule, at human FLAP, affinity was put at a Ki of 83 nM.

Take `CC(C)S(=O)(=O)c1ccccc1-c1ccc(-c2cnc(N)cn2)c(F)c1` [Example 199, 5-{3-Fluoro-2′-[(1-methylethyl)sulfonyl]biphenyl-4-yl}pyrazin-2-amine]: the IC50 in test [1] came to 250 nM. In addition, affinity at human FLAP was put at a Ki of 39 nM.

`NC(=O)CSc1ccccc1-c1ccc(-c2cnc(N)cn2)c(F)c1` [Example 200, 2-{[4′-(5-Aminopyrazin-2-yl)-3′-fluorobiphenyl-2-yl]sulfanyl}acetamide]: the half-maximal inhibitory concentration (IC50) in test [1] is 176 nM. This molecule registered an inhibitory constant (Ki) on human FLAP of 35 nM.

`CCN(CC)C(=O)CSc1ccccc1-c1ccc(-c2cnc(N)cn2)c(F)c1` [Example 201, 2-{[4′-(5-Aminopyrazin-2-yl)-3′-fluorobiphenyl-2-yl]sulfanyl}-N,N-diethylacetamide]: the IC50 in test [1] came out at 358 nM. Also, the inhibition constant Ki at human FLAP stood at 21 nM.

In the case of `Nc1cnc(-c2ccc(-c3ccccc3SCC(=O)N3CCOCC3)cc2F)cn1` [Example 202, 5-{3-Fluoro-2′-[(2-morpholin-4-yl-2-oxoethyl)sulfanyl]biphenyl-4-yl}pyrazin-2-amine], the 50% inhibitory concentration (IC50) in test [1] was determined as 172 nM. The inhibition constant (Ki) at human FLAP stood at 72 nM.

In the case of `Nc1cnc(-c2ccc(-c3ccccc3SCCNC(=O)c3ccccc3)cc2F)cn1` [Example 204, N-(2-{[4′-(5-Aminopyrazin-2-yl)-3′-fluorobiphenyl-2-yl]sulfanyl}ethyl)benzamide], the IC50 in test [1] was 128 nM. This molecule also came in with an inhibitory constant (Ki) on human FLAP of 4 nM.

Regarding `CS(=O)(=O)c1ccc(CSc2ccccc2-c2ccc(-c3cnc(N)cn3)c(F)c2)cc1` [Example 205, 5-(3-Fluoro-2′-{[4-(methylsulfonyl)benzyl]sulfanyl}biphenyl-4-yl)pyrazin-2-amine], in test [1], the IC50 stood at 66 nM. Moreover, the inhibitory constant (Ki) at human FLAP was 8 nM.

As to `Nc1cnc(-c2ccc(-c3ccc(C(F)(F)F)cc3S(N)(=O)=O)cc2F)cn1` [Example 206, 4′-(5-Aminopyrazin-2-yl)-3′-fluoro-4-(trifluoromethyl)biphenyl-2-sulfonamide], the half-inhibitory concentration (IC50) in test [1] came out at 43 nM. Also, at human FLAP, the Ki was determined as 2 nM.

In the case of `CS(=O)(=O)c1cc(C(F)(F)F)ccc1-c1ccc(-c2cnc(N)cn2)c(F)c1` [Example 207, 5-[3-Fluoro-2′-(methylsulfonyl)-4′-(trifluoromethyl)biphenyl-4-yl]pyrazin-2-amine], the half-maximal inhibitory concentration (IC50) in test [1] was found to be 205 nM. The Ki at human FLAP is 17 nM.

On to `Nc1cnc(-c2ccc(-c3ccc(C(F)(F)F)cc3S(=O)(=O)N3CCNC(=O)C3)cc2F)cn1` [Example 209, 4-{[4′-(5-Aminopyrazin-2-yl)-3′-fluoro-4-(trifluoromethyl)biphenyl-2-yl]sulfonyl}piperazin-2-one], for which the 50% inhibitory concentration (IC50) in test [1] worked out at 34 nM. The affinity on human FLAP, expressed as Ki, was 1 nM.

For `CCNS(=O)(=O)c1cc(C(F)(F)F)ccc1-c1ccc(-c2cnc(N)cn2)c(F)c1` [Example 211, 4′-(5-Aminopyrazin-2-yl)-N-ethyl-3′-fluoro-4-(trifluoromethyl)biphenyl-2-sulfonamide], the IC50 in test [1] is 6 nM. The same molecule had a Ki at human FLAP of 1 nM.
